The values that follow come from US20080188449A1, “Treatment of Conditions Caused By Calcium Abnormalities” (priority 2004, published 2008).

A value given as a limit tells only on which side of the number the result lay.

The subject of series [1] is HeLa cells. As to the kind of experiment: [^3H]-triptolide competition binding in HeLa cells. As to conditions: 1 or 10 μM competitor one hour before [^3H]-triptolide, HeLa cells. The method, then:
To gain insight into triptolide's mechanism of action Applicants sought to determine its specific binding activity utilizing a system employing [^3H]-triptolide. In addition to competition with 1 μM or 10 μM unlabeled triptolide, Applicants also measured the binding affinities of triptolide analogs (FIG. 1A). These analogs have been previously described and differ structurally from triptolide in the hydrolysis of the 12,13 epoxide (2), and formation of the ketone at the C-14 hydroxyl (3) (FIG. 1A). […] The effective interaction of these analogs with a presumed triptolide binding entity led us to their use in subsequent experiments addressing the mode of triptolide's biological functions.
To address first the nature of triptolide binding within the cell, Applicants determined this interaction was reversible as [^3H]-triptolide labeling was out competed by subsequent addition of excess unlabeled triptolide (FIG. 2A). […] Although 25% of the total cellular counts (i.e., representing bound triptolide) were found in the cytosolic fraction, it is uncertain whether this is specific binding or simply that free triptolide had dissociated from its binding protein due to experimental manipulation during fractionation. Since the data thus far had only shown binding within whole cells, Applicants next determined if this triptolide binding protein could be further characterized and/or enriched by its association with chromatographic reagents. HeLa cells were once again labeled with [^3H]-triptolide and total cell lysates were then passed over the anion exchange resin DEAE. Batch elutions with increasing NaCl concentrations were used to disassociate interactions of variable charge. […] Importantly, Applicants also observed that [^3H]-triptolide would only bind to intact cells in culture but would not bind to any component of a total cellular lysate as assessed by interaction with the DEAE resin. Negative results for a triptolide binding interaction were also observed with DNA-cellulose and the cation exchange resin SPFF (sulphopropyl).
Labeling studies were performed by the addition of approximately 30 nM [^3H]-triptolide directly into the culture media for one hour at 37° C. For cold competition studies, 1 μM triptolide was incubated with the cells for one hour before or after the addition of [^3H]-triptolide. Triptolide analog studies followed a similar protocol where concentrations used for competition were either 1 or 10 μM added before [^3H]-triptolide. Medium was removed and cells were washed 3× in cold PBS. Total cell lysates were prepared (150 mM NaCl, 50 mM Tris-HCl pH 7.4, 1 mM EDTA, 1% Triton X-100, and Complete protease inhibitors (Roche)) and protein was quantitated before measuring the [^3H]-triptolide binding activity via liquid scintillation.

Series [2] relates to Pkd1^−/− murine kidney epithelial cells. As to the kind of experiment: Growth, p21 and active caspase-3 in Pkd1^−/− cells. The format is cell-based. The method, then:
(§1) Calcium response to triptolide was, thus, shown to be dependent on polycystin-2. The biological response to calcium flux was next assessed in the murine Pkd1^−/− cell line, by adding 100 nM triptolide to the cultured cells and observing cell growth over time. Within the first 24 hours of culture, a minimal number of detached cells was observed. […] In the absence of triptolide, this cell line underwent a population doubling every 48 hours. […] It is possible that additional signaling pathways are activated by triptolide when Pkd1 is expressed. […] Therefore, Applicants assessed whether the inhibition of proliferation observed was due to p21 re-expression upon triptolide treatment.
(§2) The Pkd1^−/−(MN24), Pkd2^+/−(3B3) and Pkd2^−/−(2D2) murine cell lines were derived from knockout and transgenic mice as previously reported (Wu, et al., 1998, Cell, 93:177-88; Wu, et al., 2000, Nat. Genet, 24:75-8; Wu, et al., 2002, Hum Mol Genet, 11:1845-54). The PKD2-Rex cell line was made by stable integration of untagged PKD2 under hygromycin selection. Antibodies used included polycystin-2 (Cai, et al. 1999, J Biol Chem, 274:28557-65), cleaved (active) caspase-3 (Cell Signaling Technology) and p21 (BD Biosciences). Triptolide was obtained from Sinobest Inc. (China) and purity was 99% as determined by HPLC. DMSO was used to dissolve triptolide and was then directly added into culture media for all experiments. Triptolide was tritiated by Sib Tech, Inc. (Newington, Conn.) and resuspended in ethanol to a specific activity of 4-6 Ci/mmol. Purity was >95% as confirmed by RP-HPLC on a Hypersil C18 column and by TLC on both C18 and silica gel.
Total cell lysates (0.5% Triton X-100, 50 mM Tris pH 7.4, 150 mM NaCl, […]) were prepared for Western blot analysis and samples were run out by SDS-PAGE as per manufacturers' protocols. Brightfield images of cells were taken using a 10× or 40× objective. Confocal microscopy (40×) was used for immunofluorescence imaging of polycystin-2.

Series [3] deals with Pkd2^+/− murine cell line. As to the kind of experiment: Viability of Pkd2^+/− cells. Type of series: cell-based. The note with it: 100 nM. The method, then: as §1
as §2, with “Triptolide was tritiated by Sib Tech, Inc. (Newington, Conn.) and resuspended in ethanol to a specific activity of 4-6 Ci/mmol. Purity was >95% as confirmed by RP-HPLC on a Hypersil C18 column and by TLC on both C18 and silica gel.” left out

Another series concerns adult animal. As to the kind of experiment: Tolerability in adult animal. The format is in vivo. The source says: Since ADPKD has no proven therapeutic cure or treatment, Applicants believe it is encouraging as a preliminary step to observe triptolide-mediated growth arrest and attenuation of cyst progression. […] In summary, Applicants have established a novel pathway for triptolide mediated calcium release in a polycystin-2 dependent pathway that can reduce cystic burden in the kidneys of PKD mice. It is hopeful therefore that if fully developed, triptolide would be an ideal candidate for drug therapy as its history as an herbal therapy has already shown it to be well tolerated in humans.

Series [4] has as its system HeLa cells. In words: HeLa cell viability by trypan blue dye exclusion. Type of series: cell-based. As to conditions: 10 μM (so in the source), 48 hours.
The test system of a further series is NFκB transactivation. In words: κB-luciferase reporter assay (TNF-α induced). Type of series: cell-based. The note with it: 10 nM triptolide+TNF-α, after 24 hours.

Consider `CC(C)[C@]12O[C@H]1[C@@H]1O[C@]13[C@]1(O[C@H]1C[C@H]1C4=C(CC[C@@]13C)C(=O)OC4)[C@@H]2O` [triptolide, Triptolide], for which the “displacement of [^3H]-triptolide binding” value in the series with HeLa cells [1] was “significantly competed”. Also, in series [2] (100 nM time course), the “active caspase-3 (western blot)” value was “failed to implicate triptolide induced apoptosis”. Moreover, in series [2] (100 nM, 96 hour time course), the “p21 expression (western blot)” value is on record as “upregulated”. Moreover, the cell growth result in series [2] (100 nM, over 96 hours) was “growth arrested”. Further, the cell death entry in series [3] is reported as “rapid cell death within 24 hours”. In the series with adult animal, the “dose that did not adversely affect health” value is given as “greater than 0.15 mg/kg/day”. Also, the “cell proliferation and cell death” value in the series on HeLa cells [4] is given as “inhibited cell proliferation but did not induce cell death”. In addition, the luciferase activity induction in the series with NFκB transactivation was > 20 fold.
